Values quoted from earlier work as cited in patent US20130079371A1, “Bioadhesive Compositions of Local Anaesthetics” (PHARMANEST AB, priority 2010, published 2013).

pKa: 8.1
SMILES: CCCCN1CCCC[C@H]1C(=O)Nc1c(C)cccc1C [levobupivacaine]
